Legend:
MV4-11 [1] = assay: Induction of apoptosis in human MV4-11 cells assessed as viable cells at 0.25 uM incubated for 18 hrs by annexin V FITC and PI based flow cytometry (reference value: 53.01 to 53.07 %); format: functional
MV4-11 [2] = assay: Induction of apoptosis in human MV4-11 cells assessed as late apoptotic cells at 0.5 uM incubated for 18 hrs by annexin V FITC and PI based flow cytometry (reference value: 9.2 to 9.63 %); format: functional
MV4-11 [3] = assay: Induction of apoptosis in human MV4-11 cells assessed as early apoptotic cells at 4 uM incubated for 18 hrs by annexin V FITC and PI based flow cytometry (reference value: 19.46 to 22.17 %); format: functional
MV4-11 [4] = assay: Induction of apoptosis in human MV4-11 cells assessed as viable cells at 0.5 uM incubated for 18 hrs by annexin V FITC and PI based flow cytometry (reference value: 53.01 to 53.07 %); format: functional
MV4-11 [5] = assay: Induction of apoptosis in human MV4-11 cells assessed as late apoptotic cells at 4 uM incubated for 18 hrs by annexin V FITC and PI based flow cytometry (reference value: 9.2 to 9.63 %); format: functional
MV4-11 [6] = assay: Induction of apoptosis in human MV4-11 cells assessed as viable cells at 4 uM incubated for 18 hrs by annexin V FITC and PI based flow cytometry (reference value: 53.01 to 53.07 %); format: functional
MV4-11 [7] = assay: Induction of apoptosis in human MV4-11 cells assessed as late apoptotic cells incubated for 18 hrs by annexin V FITC and PI based flow cytometry; format: functional, cell-based
MV4-11 [8] = assay: Induction of apoptosis in human MV4-11 cells assessed as early apoptotic cells at 2 uM incubated for 18 hrs by annexin V FITC and PI based flow cytometry (reference value: 19.46 to 22.17 %); format: functional
MV4-11 [9] = assay: Induction of apoptosis in human MV4-11 cells assessed as viable cells at 2 uM incubated for 18 hrs by annexin V FITC and PI based flow cytometry (reference value: 53.01 to 53.07 %); format: functional
[10] = Oral bioavailability in Balb/c nude mouse at 50 mg/kg measured upto 24 hrs by LC/MS/MS analysis; format: ADME, organism-based; settings: in vivo
MV4-11 [11] = assay: Induction of apoptosis in human MV4-11 cells assessed as early apoptotic cells at 1 uM incubated for 18 hrs by annexin V FITC and PI based flow cytometry (reference value: 19.46 to 22.17 %); format: functional
MV4-11 [12] = assay: Induction of apoptosis in human MV4-11 cells assessed as late apoptotic cells at 0.25 uM incubated for 18 hrs by annexin V FITC and PI based flow cytometry (reference value: 9.2 to 9.63 %); format: functional
MV4-11 [13] = assay: Induction of apoptosis in human MV4-11 cells assessed as early apoptotic cells at 0.5 uM incubated for 18 hrs by annexin V FITC and PI based flow cytometry (reference value: 19.46 to 22.17 %); format: functional
MV4-11 [14] = assay: Cytotoxicity against human MV4-11 cells assessed as reduction in cell viability incubated for 72 hrs by cell-titer blue assay; format: functional, cell-based; settings: MV4-11, 72 h
MV4-11 [15] = assay: Induction of apoptosis in human MV4-11 cells assessed as early apoptotic cells at 0.25 uM incubated for 18 hrs by annexin V FITC and PI based flow cytometry (reference value: 19.46 to 22.17 %); format: functional
MV4-11 [16] = assay: Induction of apoptosis in human MV4-11 cells assessed as viable cells at 1 uM incubated for 18 hrs by annexin V FITC and PI based flow cytometry (reference value: 53.01 to 53.07 %); format: functional
MV4-11 [17] = assay: Induction of apoptosis in human MV4-11 cells assessed as late apoptotic cells at 2 uM incubated for 18 hrs by annexin V FITC and PI based flow cytometry (reference value: 9.2 to 9.63 %); format: functional
MV4-11 [18] = assay: Induction of apoptosis in human MV4-11 cells assessed as late apoptotic cells at 1 uM incubated for 18 hrs by annexin V FITC and PI based flow cytometry (reference value: 9.2 to 9.63 %); format: functional

O=C(CCCCCCC(=O)Nc1ccccc1)NO [VORINOSTAT]
Activity (MV4-11 [1]): 51.83%
Activity (MV4-11 [2]): 11.46%
Activity (MV4-11 [3]): 35.44%
Activity (MV4-11 [4]): 38.87%
Activity (MV4-11 [5]): 26.52%
Activity (MV4-11 [6]): 20.37%
Activity (MV4-11 [7]): Dose-dependent effect
Activity (MV4-11 [8]): 35.72%
Activity (MV4-11 [9]): 24.13%
bioavailability [10]: 8%
Activity (MV4-11 [11]): 24.22%
Activity (MV4-11 [12]): 12.72%
Activity (MV4-11 [13]): 15.37%
IC50 (MV4-11 [14]): 310 nM
Activity (MV4-11 [15]): 19.79%
Activity (MV4-11 [16]): 28.82%
Activity (MV4-11 [17]): 30.07%
Activity (MV4-11 [18]): 27.29%

— ChEMBL document CHEMBL4373747 (ACS Med Chem Lett, 2020)
